Results: patent publication US20240041842A1, “PHARMACEUTICAL COMPOSITION FOR INHIBITING CANCER METASTASIS” (INDUSTRY-ACADEMIC COOPERATION FOUNDATION, YONSEI UNIVERSITY, priority 2021, published 2024)

Legend:
[1] = tested on: Snail; test: Western blot of Snail protein; assay type: cell-based, human; details: for effect of chloroquine (CQ) on Snail levels: MP or MOG combined with CQ
Procedure: (§1) Cells were harvested, washed with PBS, and lysed on ice with RIPA buffer containing protease and phophatase inhibitor cocktail (GenDEPOT). After 15 minutes of incubation, the cell lysates were centrifuged at 15,000 rpm at 4° C. for 10 minutes. Protein concentration was measured by Bradford assay (Bio-rad, 500-0006). Equal amounts of total protein were placed on an SDS gel electrophoresis and transferred to a PVDF membrane (Bio-rad). The membrane was blocked with 5% skim milk for 1 hour at room temperature and incubated overnight at 4° C. with primary antibody in a buffer containing 0.1% Tween-20. Subsequently, the membrane was washed three times with Tween-PBS buffer and incubated for 1 hour at room temperature using a secondary antibody diluted in blocking buffer containing 0.1% Tween-20. Subsequently, the membrane was washed three times for 10 minutes each using Tween-TBS. Densitometry of Western blots was measured using ImageJ software.
[…] For autophagy activation, cells were'treated with 2 μM rapamycin (Selleckchem, S1039) for 5 hours. Modulation of intracellular ROS was performed with N-acetyl-cysteine (10 mM) (Sigma, A7250), hydrogen peroxide solution (100 μM to 200 μM) (Sigma, 216763), or CDDO-ME NRF2 activator (50 nM, 100 nM) (Sellckchem, S8078) for 4 to 24 hours. Intercellular calcium signal control was performed for 1 hour using BAPTA-AM (20 μM) (Sigma, A1076) or Calmidazolium Chloride (2.5 μM) (Sigma, C3930). […] For TFEB protein phosphorylation, tacrolimus (1 μM) (Selleckchem, S5003) was treated for 1 hour. […] During siRNA treatment, each siRNA was treated to a concentration of 40 to 50 nM and treated together with Lipofectamine RNAiMax (Thermo Fisher Scientific, 13778150) for transformation, and were used for experiments 48 to 72 hours later. For cDNA treatment, each cDNA was treated to a concentration of 1 to 2 μg in a 6-well plate and treated with Lipofectamine 2000 (Thermo Fisher Scientific, 11668019) for transformation, and were used for experiments 24 hours later.

[2] = tested on: Intracellular citrate; test: Citrate assay; assay type: cell-based, human; details: HBEC-KL; 8 mM MP or 3 mM MOG in the presence of 50 uM CQ
Procedure: Intracellular citrate levels were calculated in the pmol range using a citrate assay kit (Biovision, K655). After sonication, proteins were removed from the supernatant using a 10 kDa molecular weight cutoff spin column, followed by incubation at room temperature for 30 minutes with 50 μl citrate reaction mixture comprising enzyme mixture, developer and citrate probe. Citrate content was measured by reading OD 570 nm with an Envision Multimode Plate Reader (PerkinElmer 2105-0010, Waltham, MA, USA). After correcting the background in all readings, the value of each sample was determined and normalized to the protein concentration of each sample.

[3] = tested on: A549-luc cells; test: A549-luc tail vein injection metastasis model; assay type: in vivo; details: nude mice; 25 mg/kg, 100 mg/kg, qd, p.o. 28 consecutive days; compared to the vehicle-treated group
Procedure: FIG. 13E illustrates role of STO-609 on cancer metastasis in an A549-luc tail vein injection model. After intravenous injection of A549-luc cells into nude mice, vehicle or STO-609 (25 mg/kg and 100 mg/kg qd) was injected for 28 days starting one day after the injection. A picture taken of a bioluminescent image when 4 weeks have elapsed after injection is shown (above). Analysis results of the total metastasis burden by photonic flux are shown (below). FIG. 13H illustrates the role of BMS303141 on cancer metastasis in an A549-luc tail vein injection model. A549-luc cells were intravenously injected into nude mice, and then vehicle or BMS303141 (100 mg/kg q.d.) was injected for 20 days starting one day after the injection. A bioluminescence image when 3 weeks have elapsed after injection is shown. 7- to 9-week-old BALB/c-nu Sic mice were obtained from SLC, Inc. (Shizuoka, Japan) and used, A549-luc cells (#JCRB1414) or SNAI1 shRNA-mediated knockdown A549-luc cells were injected at 3-4.5×10^6 cells through the tail vein of mice. After 3 to 4 weeks, metastasis was monitored by bioluminescence imaging analysis. More specifically, after injecting D-luciferin (75 mg/kg) (PerkinElmer, 122799) into the abdominal cavity of the mouse, images were obtained using an IVIS imaging system (IVIS 200, PerkinElmer, Waltham, MA, USA) in the supine position. Lung tissue was obtained for histopathological analysis. Images were analyzed using commercially available software (ImageScope; Aperio Technologies). In the STO-609 efficacy test, STO-609 (25 mg, 100 mg/kg/day) was orally administered to mice on the day of injection. In the BMS303141 efficacy test, BMS303141 (100 mg/kg/day) was orally administered to mice on the day of injection.

[4] = tested on: LC3; test: Autophagic flux (LC3 Western blot, mRFP-GFP-LC3 lysosomal delivery assay); assay type: cell-based, human; details: HBEC-KL cell line; NAC or 50 uM STO-609, 24 hours
Procedure: as §1, with “Representative GFP-LC3, RFP-LC3 and overlapping images are shown. In addition, red puncta (mRFP+/GFP−) and yellow puncta (mRFP+/GFP+) per cell were quantified and graphed (n=15 cells/treatment). Cells” for “Cells”

[5] = tested on: acetylated Snail; test: Immunoprecipitation-immunoblot of acetylated Snail; assay type: cell-based, human; details: A549 luciferase cell line in vitro; 50 uM STO-609, 24 hours
Procedure: (§2) Cell lysates (1 μg protein) were incubated overnight at 4° C. on anti-FLAG® M2 Affinity Gel (Sigma, A2220) or anti-acetyl-lysine antibody coated agarose (ImmuneChem Pharmaceuticals, ICP0388). The immunoprecipitate was then washed three times in IP buffer, and the immunoprecipitated complex was dissolved and separated by boiling in IP buffer for 5 minutes.
For SDS-PAGE electrophoresis, the immunoprecipitated complex was transferred to a nitrocellulose membrane and the membrane was blocked and then incubated for 1 hour at room temperature with Primary antibody and secondary antibody (VeriBlot for IP Detection Reagent (HRP) (Abcam, #ab131366), and anti-mouse IgG tor IP (HRP) (Abeam, #ab131368)).
After washing 3 times, the membrane was incubated with the secondary antibody.

[6] = tested on: TFEB; test: Western blot / immunoprecipitation-immunoblot of TFEB (acetylated, phosphorylated, total); assay type: cell-based, human; details: HBEC-KL; 50 uM STO-609, 24 hours
Procedure: FIG. 11J illustrates a diagram of immunoblot results of the […] a control (left), and the immunoprecipitation-immunoblot result of TFEB acetylated HBEC-KL cells under the same conditions (right) is also shown,
as §1
as §2, with “For immunoprecipitation, equal amounts of lysate and Co-IP buffer (40 mM HEPES, pH 7.4, 120 mM NaCl, 2 mM EDTA, 0.3% CHAPS (Sigma, 10810118001), 10 mM pyrophosphate (Sigma, 221368), 10 mM glycerophosphate (Sigma, G9422), 50 mM NaF, phosphatase and protease inhibitor mixture) were mixed. Cell” for “Cell”

Structure (SMILES)	expression level of Snail decreased by siIDH1 ([1]; HBEC-KL, 3 mM MOG)	Snail levels when ACLY was reduced ([1]; HBEC-KL, MOG supplemented condition, ACLY siRNA)	effect of chloroquine (CQ) on Snail levels ([1]; HBEC-KL)	effect of chloroquine (CQ) on citrate levels [2]	Snail expression level decreased by siCS ([1]; HBEC-KL, 8 mM MP)	total metastasis burden (photonic flux) [3]	total number of lung metastases [3]	autophagic flux [4]	Snail protein ([1]; HBEC-KL cell line, STO-609)	abnormal increase in Snail expression level by AMG-510 ([1]; KL cell lines, 1 uM AMG-510 and 50 uM STO-609)	acetylated Snail [5]	acetylated TFEB [6]
COC(=O)CCC(=O)C(=O)OC [MOG, dimethyl-2-oxoglutarate]	restored	did not recover	completely reverses	completely reverses	–	–	–	–	–	–	–	–
COC(=O)C(C)=O [MP, methyl pyruvate]	–	–	completely reverses	completely reverses	not increased	–	–	–	–	–	–	–
O=C(O)c1ccc2c3c1cccc3c(=O)n1c3ccccc3nc21 [STO-609]	–	–	–	–	–	reduced	reduced	decreased	reduction	reduced	reduced	reduces
